Molecular target: T1, T1R2/T1R3 taste receptor (Homo sapiens, UniProt Q7RTX0+Q8TE23)
T1 sequence (Q8TE23 20-839): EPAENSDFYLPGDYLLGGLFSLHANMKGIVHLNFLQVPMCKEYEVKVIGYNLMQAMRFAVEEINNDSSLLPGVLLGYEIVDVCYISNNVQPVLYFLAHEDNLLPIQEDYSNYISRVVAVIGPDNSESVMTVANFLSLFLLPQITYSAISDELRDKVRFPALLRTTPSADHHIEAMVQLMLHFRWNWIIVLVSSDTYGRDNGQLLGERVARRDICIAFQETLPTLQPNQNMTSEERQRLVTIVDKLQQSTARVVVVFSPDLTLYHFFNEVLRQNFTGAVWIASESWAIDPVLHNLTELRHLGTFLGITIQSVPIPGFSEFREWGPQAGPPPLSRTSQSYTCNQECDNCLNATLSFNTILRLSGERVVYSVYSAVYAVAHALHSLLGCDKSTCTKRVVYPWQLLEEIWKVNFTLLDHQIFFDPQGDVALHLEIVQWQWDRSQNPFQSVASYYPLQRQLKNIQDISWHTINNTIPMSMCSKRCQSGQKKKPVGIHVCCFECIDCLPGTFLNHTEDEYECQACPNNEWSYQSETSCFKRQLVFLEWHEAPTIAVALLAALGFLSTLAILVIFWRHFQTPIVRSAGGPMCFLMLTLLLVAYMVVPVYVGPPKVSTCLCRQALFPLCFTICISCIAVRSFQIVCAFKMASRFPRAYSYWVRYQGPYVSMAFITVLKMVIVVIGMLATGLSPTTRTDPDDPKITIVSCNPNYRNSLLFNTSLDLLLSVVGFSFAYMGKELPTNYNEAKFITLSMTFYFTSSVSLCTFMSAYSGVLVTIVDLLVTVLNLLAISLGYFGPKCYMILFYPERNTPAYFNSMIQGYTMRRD
T1 sequence (Q7RTX0 21-852): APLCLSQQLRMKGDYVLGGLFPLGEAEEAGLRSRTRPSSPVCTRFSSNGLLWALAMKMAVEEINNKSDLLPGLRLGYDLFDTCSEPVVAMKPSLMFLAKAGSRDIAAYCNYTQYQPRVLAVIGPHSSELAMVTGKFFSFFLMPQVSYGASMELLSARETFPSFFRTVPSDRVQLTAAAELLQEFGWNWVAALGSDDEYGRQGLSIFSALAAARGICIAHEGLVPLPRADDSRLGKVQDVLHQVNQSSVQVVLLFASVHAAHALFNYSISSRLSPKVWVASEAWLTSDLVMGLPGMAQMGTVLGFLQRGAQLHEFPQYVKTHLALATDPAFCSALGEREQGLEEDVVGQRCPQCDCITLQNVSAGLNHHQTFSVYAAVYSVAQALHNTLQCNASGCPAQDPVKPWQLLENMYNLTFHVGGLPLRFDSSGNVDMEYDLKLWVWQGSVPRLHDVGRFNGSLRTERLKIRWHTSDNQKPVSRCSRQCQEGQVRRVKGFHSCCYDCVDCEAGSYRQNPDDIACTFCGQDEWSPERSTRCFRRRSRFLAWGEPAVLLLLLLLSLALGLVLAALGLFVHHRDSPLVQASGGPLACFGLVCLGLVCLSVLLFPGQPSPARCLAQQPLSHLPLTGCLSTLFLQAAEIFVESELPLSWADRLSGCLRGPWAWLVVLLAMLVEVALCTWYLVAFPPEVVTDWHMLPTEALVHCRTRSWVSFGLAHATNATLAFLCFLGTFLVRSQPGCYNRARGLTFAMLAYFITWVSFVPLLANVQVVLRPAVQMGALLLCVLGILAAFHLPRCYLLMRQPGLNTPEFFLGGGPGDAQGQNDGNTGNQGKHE
Test: Receptor-based assay: sweetener EC50 enhancement ratio with and without test compound
Assay type: cell-based
Conditions: for Sucrose Enhancement EC50 Ratio: sweetener sucrose; for Sucralose Enhancement EC50 Ratio: sweetener sucralose; for Fructose Enhancement EC50 Ratio: sweetener fructose
Protocol: Potencies (EC50 values) for the sweeteners sucrose, sucralose, and fructose were measured against the T1R2/T1R3 taste receptor. EC50 was determined using the sweetener alone and in the presence of 1 μM, 3 μM, 10 μM, or 50 μM of test compound. EC50 ratios were calculated by the ratio of potency with and without the test compound. An “A” value indicates an enhancement ratio of greater than 1 and less than 10. A “B” value indicates an enhancement ratio from 10 to 20. A “C” value indicates an enhancement ratio greater than 20.

Row | Sucralose Enhancement EC50 Ratio (10 μM test compound) | Sucrose Enhancement EC50 Ratio (10 μM test compound) | SMILES | Sucrose Enhancement EC50 Ratio (1 μM test compound) | Sucralose Enhancement EC50 Ratio (3 μM test compound) | Sucrose Enhancement EC50 Ratio (3 μM test compound) | Fructose Enhancement EC50 Ratio (10 μM test compound) | Fructose Enhancement EC50 Ratio (50 μM test compound)
1 |  |  | Cc1nc2cccc(O[C@H]3CC[C@H](NC(=O)COCC4CCC4)CC3)c2c(N)c1C(=O)O [Compound 326] | B (an enhancement ratio from 10 to 20) |  |  |  | 
2 | C (an enhancement ratio greater than 20) | B (an enhancement ratio from 10 to 20) | Cc1nc2cccc(O[C@H]3CC[C@H](Nc4ccccn4)CC3)c2c(N)c1C(=O)O [Compound 701, 4-Amino-2-methyl-5-((trans-4-(pyridin-2-ylamino)cyclohexyl)oxy) quinoline-3-carboxylic acid] | A (an enhancement ratio of greater than 1 and less than 10) | C (an enhancement ratio greater than 20) | B (an enhancement ratio from 10 to 20) |  | 
3 |  |  | Cc1nc2cccc(O[C@H]3CC[C@H](NC(=O)COc4ccccc4)CC3)c2c(N)c1C(=O)O [Compound 327] | A (an enhancement ratio of greater than 1 and less than 10) |  |  |  | 
4 |  |  | Cc1nc2cccc(O[C@H]3CC[C@H](NC(=O)CN4CCCC4)CC3)c2c(N)c1C(=O)O [Compound 323] | A (an enhancement ratio of greater than 1 and less than 10) |  | A (an enhancement ratio of greater than 1 and less than 10) |  | 
5 |  | B (an enhancement ratio from 10 to 20) | CCc1nc2cccc(OC3CCC(C)(C)CC3)c2c(N)c1C(=O)O [Compound 203] | A (an enhancement ratio of greater than 1 and less than 10) |  | A (an enhancement ratio of greater than 1 and less than 10) |  | 
6 |  | B (an enhancement ratio from 10 to 20) | Cc1nc2cccc(O[C@H]3CC[C@H](NC(=O)CO[C@H]4CC[C@H](C)CC4)CC3)c2c(N)c1C(=O)O [Compound 312] | A (an enhancement ratio of greater than 1 and less than 10) |  | A (an enhancement ratio of greater than 1 and less than 10) |  | 
7 |  |  | Cc1nc2cccc(O[C@H]3CC[C@H](NC(=O)COC(C)(C)C)CC3)c2c(N)c1C(=O)O [Compound 308] | B (an enhancement ratio from 10 to 20) |  |  |  | 
8 |  |  | Cc1nc2cccc(O[C@H]3CC[C@H](C(C)(C)C)CC3)c2c(N)c1C(=O)O [Compound 104] | A (an enhancement ratio of greater than 1 and less than 10) |  | C (an enhancement ratio greater than 20) |  | 
9 |  |  | CCC(CC)OCC(=O)N[C@H]1CC[C@H](Oc2cccc3nc(C)c(C(=O)O)c(N)c23)CC1 [Compound 341] | A (an enhancement ratio of greater than 1 and less than 10) | A (an enhancement ratio of greater than 1 and less than 10) | B (an enhancement ratio from 10 to 20) |  | 
10 | B (an enhancement ratio from 10 to 20) | B (an enhancement ratio from 10 to 20) | Cc1nc2cccc(O[C@H]3CC[C@H](Nc4ncc(F)cn4)CC3)c2c(N)c1C(=O)O [Compound 704] | A (an enhancement ratio of greater than 1 and less than 10) | B (an enhancement ratio from 10 to 20) | A (an enhancement ratio of greater than 1 and less than 10) | A (an enhancement ratio of greater than 1 and less than 10) | A (an enhancement ratio of greater than 1 and less than 10)
11 |  | B (an enhancement ratio from 10 to 20) | CCOC(C)(C)C(=O)N[C@H]1CC[C@H](Oc2cccc3nc(C)c(C(=O)O)c(N)c23)CC1 [Compound 316] | A (an enhancement ratio of greater than 1 and less than 10) |  | A (an enhancement ratio of greater than 1 and less than 10) |  | 
12 |  | B (an enhancement ratio from 10 to 20) | COCCC(=O)N[C@H]1CC[C@H](Oc2cccc3nc(C)c(C(=O)O)c(N)c23)CC1 [Compound 317] | A (an enhancement ratio of greater than 1 and less than 10) |  | A (an enhancement ratio of greater than 1 and less than 10) |  | 
13 |  | C (an enhancement ratio greater than 20) | CO[C@H]1CC[C@H](Oc2cccc3nc(C)c(C(=O)O)c(N)c23)CC1 [Compound 105] | A (an enhancement ratio of greater than 1 and less than 10) |  | A (an enhancement ratio of greater than 1 and less than 10) |  | 
14 |  |  | Cc1nc2cccc(O[C@H]3CC[C@H](NC(=O)COCCC(C)C)CC3)c2c(N)c1C(=O)O [Compound 340] | B (an enhancement ratio from 10 to 20) | A (an enhancement ratio of greater than 1 and less than 10) | B (an enhancement ratio from 10 to 20) |  | 
15 |  |  | CCOCC(=O)N[C@H]1CC[C@H](Oc2cccc3nc(CC)c(C(=O)O)c(N)c23)CC1 [Compound 322] | A (an enhancement ratio of greater than 1 and less than 10) |  | A (an enhancement ratio of greater than 1 and less than 10) |  | 

Row | SMILES | Sucralose Enhancement EC50 Ratio (10 μM test compound) | Sucrose Enhancement EC50 Ratio (10 μM test compound) | Sucrose Enhancement EC50 Ratio (1 μM test compound) | Sucralose Enhancement EC50 Ratio (3 μM test compound) | Sucrose Enhancement EC50 Ratio (3 μM test compound) | Fructose Enhancement EC50 Ratio (10 μM test compound) | Fructose Enhancement EC50 Ratio (50 μM test compound)
16 | Cc1cnn(CC(=O)N[C@H]2CC[C@H](Oc3cccc4nc(C)c(C(=O)O)c(N)c34)CC2)c1 [Compound 330] |  | A (an enhancement ratio of greater than 1 and less than 10) | A (an enhancement ratio of greater than 1 and less than 10) |  | A (an enhancement ratio of greater than 1 and less than 10) |  | 
17 | Cc1nc2cccc(O[C@H]3CC[C@H](NC(=O)CO)CC3)c2c(N)c1C(=O)O [Compound 303] | A (an enhancement ratio of greater than 1 and less than 10) | B (an enhancement ratio from 10 to 20) | A (an enhancement ratio of greater than 1 and less than 10) |  | A (an enhancement ratio of greater than 1 and less than 10) |  | 
18 | CNC(C)(C)C(=O)N[C@H]1CC[C@H](Oc2cccc3nc(C)c(C(=O)O)c(N)c23)CC1 [Compound 501] | B (an enhancement ratio from 10 to 20) | A (an enhancement ratio of greater than 1 and less than 10) | A (an enhancement ratio of greater than 1 and less than 10) |  | A (an enhancement ratio of greater than 1 and less than 10) | A (an enhancement ratio of greater than 1 and less than 10) | A (an enhancement ratio of greater than 1 and less than 10)
19 | CCNCC(=O)N[C@H]1CC[C@H](Oc2cccc3nc(C)c(C(=O)O)c(N)c23)CC1.Cl [Compound 400, 4-Amino-5-((trans-4-(2-(ethylamino)acetamido)cyclohexyl)oxy)-2-methyl quinolone-3-carboxylic acid (HCl)] | A (an enhancement ratio of greater than 1 and less than 10) | A (an enhancement ratio of greater than 1 and less than 10) | A (an enhancement ratio of greater than 1 and less than 10) |  | A (an enhancement ratio of greater than 1 and less than 10) | A (an enhancement ratio of greater than 1 and less than 10) | A (an enhancement ratio of greater than 1 and less than 10)

Source: patent publication US11339128B2 (Firmenich Incorporated, priority 2014, dated 2022)
